# Test results: patent publication US20160025704A1, “METHODS FOR IDENTIFYING NEUROPROTECTIVE PKC ACTIVATORS” (priority 2013, published 2016)
# Key:
# [1] = tested on: healthy brown Norway rats; test: Learning, memory and mushroom spine synapses in healthy rats, water maze training; type: in vivo; conditions: PKCα inhibitor given with bryostatin and water maze training
# Text: Protocol: Non-disease, healthy brown Norway rats (at 4-5 months old) were used in this study. […] (Nv=naîve controls; Sw=swim controls; Mz=water maze treatment; and Mz/Br=water maze treatment plus bryostatin treatment).
# ECE [2] = test: ECE activity in cultured neurons (fluorometric); type: cell-based; conditions: 1 μM, compared to ethanol alone
# Procedure: (§1) Aβ can be degraded in vivo by a number of enzymes, including insulin degrading enzyme (insulysin), neprilysin, and ECE (FIG. 12). Because PKC-ε overexpression has been reported to activate ECE (Choi et al., Proc. Natl. Acad. Sci. USA. 2006; 103: 8215-20), the effect of PKC activators on ECE was analyzed. Candidate PKC activators were added to either SH-SY5Y cells (Bryo—0.27 nM, DCP-LA—1 μM, and DHA-CP6 1 μM) or cultured neurons (DHA-CP6—1 μM, EPA-CP5— 1 μM, and AA-CP4— 1 μM), and grown on either 12- or 24-well plates. After various time periods, the cells were collected and ECE activity was measured fluorometrically. Results are shown below in FIG. 13. *, p<0.05; **, p<0.001.
# ECE [3] = test: ECE activity in SH-SY5Y cells (fluorometric); type: cell-based; conditions: 1 μM, compared to ethanol alone
# Procedure: as §1
# PKCε overexpression has been reported to activate endothelin converting enzyme (ECE). The effect of PKC activators on ECE was measured here with Bryostatin, DCP-LA, and DHA-CP6. […] Protocol: Bryostatin (0.27 nM), DCP-LA (1 μM), DHACP6 (1 μM), EPA-CP5 (1 μM), AA-CP4 (1 μM), or ethanol alone were added to SH-SYSY cells growing on 12- or 24-well plates. After various periods of time, the cells were collected and ECE activity was measured fluorometrically as showing in FIG. 34 below (* p<0.05, ** p<0.001).
# [4] = tested on: TA 100 cells & TA 1535 cells / TA 98 cells; test: AMES testing, overall result (mutagenic potential); type: cell-based
# Text: (§2) The AMES test is a rapid screening of the mutagenic potential of chemical compounds. […] Between 50% and 70% of all known carcinogens test positive in the AMES test.
# PKC-ε = molecular target: T1, PKC-ε (Homo sapiens, UniProt Q02156); test: Activation of purified PKC isozymes; type: biochemical; conditions: purified PKC isozymes (9 ng), preincubated 5 minutes at room temperature
# T1 sequence (Q02156 1-737): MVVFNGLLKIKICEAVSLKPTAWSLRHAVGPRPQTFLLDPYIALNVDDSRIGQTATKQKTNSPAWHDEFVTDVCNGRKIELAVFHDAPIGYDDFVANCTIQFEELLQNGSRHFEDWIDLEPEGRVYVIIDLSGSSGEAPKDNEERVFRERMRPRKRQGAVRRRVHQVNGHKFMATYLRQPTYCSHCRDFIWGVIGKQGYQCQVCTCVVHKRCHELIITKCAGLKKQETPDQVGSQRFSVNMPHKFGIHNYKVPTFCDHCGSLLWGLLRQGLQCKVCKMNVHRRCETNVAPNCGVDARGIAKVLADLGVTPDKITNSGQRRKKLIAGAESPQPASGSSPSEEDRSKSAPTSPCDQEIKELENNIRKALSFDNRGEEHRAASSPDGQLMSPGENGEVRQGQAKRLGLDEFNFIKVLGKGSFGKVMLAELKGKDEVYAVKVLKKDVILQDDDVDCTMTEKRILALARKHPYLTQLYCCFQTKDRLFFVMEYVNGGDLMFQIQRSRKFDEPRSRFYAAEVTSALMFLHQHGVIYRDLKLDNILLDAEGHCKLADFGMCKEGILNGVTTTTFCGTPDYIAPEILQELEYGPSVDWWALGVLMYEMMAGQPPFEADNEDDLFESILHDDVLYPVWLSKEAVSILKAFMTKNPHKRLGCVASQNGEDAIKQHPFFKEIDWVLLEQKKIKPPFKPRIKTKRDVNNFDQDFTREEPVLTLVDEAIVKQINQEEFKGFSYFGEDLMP
# Procedure: Protocol: Purified PKC-α, βII, γ, δ, or ε (9 ng) was preincubated for 5 minutes at room temperature with the following PKC activators: (A) DHA-CP6, (B) EPA-CP5, (C) AA-CP4, (D) DCP-LA, (E) “other cyclopropaneated and epoxidized fatty acids, alcohols, and methyl esters.” followed by measurement of PKC activity as described under Experimental Procedures. Results are shown below in FIG. 6.
# [5] = Internal toxicity study: Clinical Chemistry Panel & Hematology Panel; type: in vivo; conditions: in vivo
# Procedure: Internal tests measuring various biological markers were performed 24 hours after administering a PKC activator (bryostatin, cyclopropanated arachidonic acid, DCPLA, and DHACP6) at 10× the therapeutic dose. The results are shown below in Tables 5-7.
# TA 1535 Cells = test: AMES test, TA1535 cells; type: cell-based; conditions: plate count
# Text: as §2
# sAPP-α = sAPP-α secretion in an Alzheimer's disease cell line; type: cell-based, human; conditions: 100 nM pretreatment, bryostatin 0.1 nM
# Procedure: Protocol: An Alzheimer's disease cell line was incubated with bryostatin (0.1 nM), Benzolactam (0.1 nM or 1.0 μM), DMSO, pre-treated with staurosporin (100 nM) plus bryostatin (0.1 nM) for three hours. […] The graph units are relative to the vehicle, DMSO, alone (1).
# HCN-2 cells = test: Synaptogenesis in HCN-2 cells; type: cell-based, human; conditions: 10 days
# Procedure: FIG. 9 illustrates that activation of PKC-ε induces synaptogenesis in HCN-2 cells. The HCN-2 cell line was derived from cortical tissue removed from a patient undergoing hemispherectomy for intractable seizures associated with Rasmussen's encephalitis. The cells were treated with either DCPLA-methyl ester or bryostatin-1 for 10 days. […] Thus, PKC-ε activation can induce synaptogenesis in both embryonic and adult neuronal cells.
# Primary human neurons = test: Synaptogenicity in primary human neurons; type: cell-based; conditions: 100 nM
# Procedure: Protocol: Primary human neurons were treated with either DCPLA-methyl ester (100 nM) or bryostatin-1 (0.27 nM).
# [6] = tested on: neurons in the CA1 hippocampal area; test: Apoptotic cell death (TUNEL) in hippocampal CA1 area after ischemic (2-VO)/hypoxic event; type: in vivo; conditions: FIG. 11 legend; dose not given
# Procedure: Protocol: Bryostatin-1 (15 μg/m^2) was administered through a tail vein (2 doses/week, for 10 doses), starting 24 hours after the end of the ischemic (2-VO)/hypoxic event. Staining for apoptotic cell death in the hippocampal CA1 area was performed 9 day after the last bryostatin-1 dose. […] (C) Quantification of TUNEL staining in stratum radiatum (n=3 animals; n=30 confocal images). Con=control; Bry=bryostatin-1; Isch=cerebral ischemia; ***, P<0.001.
# [7] = tested on: BDNF, NGF, NT-3, and GAP-43 mRNA; test: NTF mRNA expression in primary hippocampal neurons treated with Aβ (real time PCR); type: cell-based, rat; conditions: 100 nM; 1 μM Aβ; co-treated 24 hours or treated 12 hours after Aβ
# Procedure: Protocol: Primary hippocampal neurons were treated with control buffer (Untreated), Aβ (1 μM, oligomeric form), or 0.5 nM bryostatin for 24 hours. Some cells were co-treated with Aβ plus 0.5 nM bryostatin (Bryo+Aβ) for 24 hours, or pre-treated with Aβ for 12 hours, washed out, and then treated with bryostatin for additional 12 hours (Aβ+Bryo). Cells were then lysed and total RNA was isolated. Relative expression change of BDNF, NGF, NT-3, and GAP-43 mRNA was quantitatively measured from real time PCR using specific primers against rat BDNF, NGF, NT-3, and GAP-43 mRNA (FIG. 14). A representative gel image is also shown below in FIG. 14 (Mean+SEM, *P<0.05, Aβ compared with untreated; #P<0.05, Bryo+Aβ or Aβ+Bryo compared with Aβ only).
# Test A—DCPLA (500 nM): Primary hippocampal neurons were treated with control buffer (Untreated), Aβ (1 μM, oligomer), or 500 nM DCPLA for 24 hours. Some cells were pre-treated with Aβ for 12 hr and then treated with 500 nM DCPLA for 12 hours (Aβ+DCP-LA), or co-treated with Aβ plus 500 nM DCP-LA (DCP-LA+Aβ) for 24 hours. Total RNA was isolated and relative expression change of BDNF, NGF, NT-3, and GAP-43 mRNA was quantitatively measured from real time RT-PCR using specific primers against rat BDNF, NGF, NT-3, and GAP-43 mRNA (FIG. 15). A representative gel image is also shown below in FIG. 15 (Mean+SEM of three independent experiments, *P<0.05, Aβ compared with untreated; #P<0.05, Aβ+Bryo or Bryo+Aβ compared with Aβ only).
# Test B—DCPLA-methyl ester (100 nM): Primary hippocampal neurons were treated with control buffer (Untreated), 1 μM Aβ, or 100 nM DCP-LA ME (the methyl ester form of DCP-LA) for 24 hours. Some cells were pre-treated with Aβ for 12 hr and then treated with 100 nM DCP-LA ME for 12 hours (Aβ+DCP-LA ME), or co-treated with Aβ plus […] (DCP-LA ME+Aβ) for 24 hours. Total RNA was isolated and relative expression change of BDNF, NGF, NT-3, and GAP-43 mRNA was quantitatively measured from real time RT-PCR using specific primers against rat BDNF, NGF, NT-3, and GAP-43 mRNA (FIG. 16). […]
# Human primary neurons = test: ASPD-induced apoptosis in human primary neurons (Annexin-V Fluorescein); type: cell-based; conditions: 100 nM with 100 nM ASPD, 24 hours
# Procedure: Protocol: Human primary neurons were grown on chambered slides and treated with vehicle (Control), 100 nM ASPD, ASPD+DCPLA-ME (100 nM), ASPD+bryostatin 1 (0.27 nM) and ASPD+DCPLA-ME (100 nM) or ASPD+bryostatin 1 (0.27 nM) in presence of PKC-ε inhibitor. Following 24 hours of incubation, cells were stained using Annexin-V Fluorescein to detect apoptotic cells and results are shown in FIG. 10 below. […] Data are mean±SEM of three independent experiments. (*p<0.05;** p<0.005 and *** p<0.0005).
molecule,measurement,setting,value
Cn1cc(C2=C(c3cn(CCCSC(=N)N)c4ccccc34)C(=O)NC2=O)c2ccccc21 [Ro 31-8220],effect on bryostatin-promoted induction of mushroom spine synapses,[1],inhibited
CCC1CC1CC1CC1CC1CC1CC1CC1CC1CC1CC1CC1CCC(=O)O (stereo not drawn) [DHA-CP6],ECE activity,ECE [2],increase in ECE activity
same,ECE activity,ECE [3],sustained increase in ECE activity
same,AMES testing result,[4],not mutagenic
same,Result (Mutagenic Potential),[4],"Result: Not mutagenic, p > 0.05"
CCC1CC1CC1CC1CC1CC1CC1CC1CC1CC1CCCC(=O)O (stereo not drawn) [EPA-CP5],ECE activity,ECE [2],increase in ECE activity
CCC1CC1CC1CC1CC1CC1CC1CC1CC1CC1CC1CC1CCC(=O)OC (stereo not drawn) [DHA-CP6-methyl ester],PKC-ε specificity versus PKC-α and PKC-δ,PKC-ε,PKC-ε specificity ±15% PKC-α and PKC-δ
cyclopropanated arachidonic acid,ALB (Albumin),[5],97.0 ± 2.6
same,ALP (Alkaline phosphatase),[5],93.8 ± 6.6
same,ALT (Alanine aminotransferase),[5],92.7 ± 5.4
same,AST (Aspartate aminotransferase),[5],107.0 ± 10.3
same,BA (Basophils),[5],400.0 ± 200.0
same,BUN (Blood urea nitrogen),[5],92.0 ± 6.7
same,CA (Calcium),[5],101.0 ± 3.0
same,CO2-LC (Bicarbonate),[5],100.0 ± 5.4
same,CREAT (Creatinine),[5],92.9 ± 5.2
same,EO (Eosinophils),[5],500.0 ± 250.0
same,GLU (Glucose),[5],84.8 ± 2.4
same,HCT (Hematocrit),[5],93.3 ± 2.3
same,Hb (Hemoglobin),[5],91.7 ± 6.0
same,K (Potassium),[5],82.9 ± 3.6
same,LY (Lymphocytes),[5],124.1 ± 34.4
same,MCH (Mean corpuscular hemoglobin),[5],103.0 ± 10.7
same,MCV (Mean corpuscular volume),[5],105.0 ± 2.0
same,MO (Monocytes),[5],66.6 ± 33.3
same,MPV (Mean platelet volume),[5],82.7 ± 3.7
same,NA (Sodium),[5],99.3 ± 0.6
same,NE (Neutrophils),[5],148.3 ± 51.7
same,PLT (Platelet count),[5],164.5 ± 3.7
same,RBC (Red Blood Cells),[5],89.2 ± 3.0
same,TBILI (Total bilirubin),[5],78.2 ± 6.5
same,TPROT (Total protein),[5],91.3 ± 1.4
same,WBC (White blood count),[5],136.0 ± 42.6
same,Negative,"TA 1535 Cells; 0.05 mM, TA 1535 Cells",93
same,Positive,"TA 1535 Cells; 0.05 mM, TA 1535 Cells",3
same,Negative,"TA 1535 Cells; 0.125 mM, TA1535 Cells",95
same,Positive,"TA 1535 Cells; 0.125 mM, TA1535 Cells",1
same,Negative,"TA 1535 Cells; 0.5 mM, TA1535 Cells",94
same,Positive,"TA 1535 Cells; 0.5 mM, TA1535 Cells",2
same,Negative,"TA 1535 Cells; 1 mM, TA1535 Cells",93
same,Positive,"TA 1535 Cells; 1 mM, TA1535 Cells",3
same,AMES testing result,[4],not mutagenic
same,Result (Mutagenic Potential),[4],"Result: Not mutagenic, p > 0.05"
CN[C@@H]1C[C@H]2O[C@@](C)([C@@H]1OC)n1c3ccccc3c3c4c(c5c6ccccc6n2c5c31)C(=O)NC4 [staurosporin],effect of pretreatment on bryostatin-enhanced sAPP-α secretion,sAPP-α,completely abolished the effect of bryostatin
CCCCCC1CC1CC1CC1CCCCCCCC(=O)OC (stereo not drawn) [DCPLA-methyl ester],"differentiation, neuronal branching and punctate colocalization of PSD-95 and synaptophysin",HCN-2 cells,significant differentiation with neuronal branching and increased punctate colocalization of PSD-95 and synaptophysin
same,co-localized staining of PSD-95 and synaptophysin in puncta (number of synapses),Primary human neurons; 30 days,an increase in co-localized staining of PSD-95 and synaptophysin in puncta
same,"survival, neuritic branching and connections",Primary human neurons; 40 days,improved survival with increased neuritic branching and connections
same,apoptotic cell death in neurons in the CA1 hippocampal area,[6],prevents apoptotic cell death
same,PKC-ε specificity versus PKC-α and PKC-δ,PKC-ε,PKC-ε specificity ±15% PKC-α and PKC-δ
same,NTF mRNA expression decreased by Aβ,[7],recovers NTF mRNA expression decreased by Aβ
same,protection against ASPD-induced apoptosis,Human primary neurons,protected against ASPD-induced apoptosis
